Values of other authors in PubChem BioAssay AID1259409 (Chemical Carcinogenesis Research Information System (CCRIS), 2018).

System: rodent chemically induced tumor inhibition, incidence and multiplicity
Assay: CCRIS tumor inhibitor studies

CC(=O)N[C@@H](CS)C(=O)O
tumour outcome (control, treated, inhibition, significance) (Carcinogen: 4-(METHYLNITROSAMINO)-1-(3-PYRIDYL)-1-BUTANONE [64091-50-5], Dose [Inhibitor]: 80 MMOL/KG IN DIET FOR 17 WK BEGINNING 1 WK PRIOR TO FIRST CARCINOGEN DOSE (STUDY DURATION: 17 WK), Route [Inhibitor]: ORAL, Species: MOUSE, Strain/Sex: A/J/FEMALE, Target Tissue: Type of Lesion: LUNG: ADENOMA, Dose [Carcinogen]: 10 UMOL ONCE 1 WK POST FIRST INHIBITOR DOSE (STUDY DURATION: 17 WK), Promoter: NONE): 100%, 100%, 0%, not significant | tumour outcome (control, treated, inhibition, significance) (Carcinogen: 4-(METHYLNITROSAMINO)-1-(3-PYRIDYL)-1-BUTANONE [64091-50-5], Dose [Inhibitor]: 80 MMOL/KG IN DIET FOR 53 WK BEGINNING 1 WK PRIOR TO FIRST CARCINOGEN DOSE (STUDY DURATION: 53 WK), Route [Inhibitor]: ORAL, Species: MOUSE, Strain/Sex: A/J/FEMALE, Target Tissue: Type of Lesion: LUNG: ADENOMA OR ADENOCARCINOMA, Dose [Carcinogen]: 10 UMOL ONCE 1 WK POST FIRST INHIBITOR DOSE (STUDY DURATION: 53 WK), Promoter: NONE): 100%, 93%, 7%, not significant | tumour outcome (control, treated, inhibition, significance) (Carcinogen: 4-(METHYLNITROSAMINO)-1-(3-PYRIDYL)-1-BUTANONE [64091-50-5], Dose [Inhibitor]: 160 MMOL/KG IN DIET FOR 17 WK BEGINNING 1 WK PRIOR TO FIRST CARCINOGEN DOSE (STUDY DURATION: 17 WK), Route [Inhibitor]: ORAL, Species: MOUSE, Strain/Sex: A/J/FEMALE, Target Tissue: Type of Lesion: LUNG: ADENOMA, Dose [Carcinogen]: 10 UMOL ONCE 1 WK POST FIRST INHIBITOR DOSE (STUDY DURATION: 17 WK), Promoter: NONE): 100%, 100%, 0%, not significant | tumour outcome (control, treated, inhibition, significance) (Carcinogen: 4-(METHYLNITROSAMINO)-1-(3-PYRIDYL)-1-BUTANONE [64091-50-5], Dose [Inhibitor]: 160 MMOL/KG IN DIET FOR 53 WK BEGINNING 1 WK PRIOR TO FIRST CARCINOGEN DOSE (STUDY DURATION: 53 WK), Route [Inhibitor]: ORAL, Species: MOUSE, Strain/Sex: A/J/FEMALE, Target Tissue: Type of Lesion: LUNG: ADENOMA OR ADENOCARCINOMA, Dose [Carcinogen]: 10 UMOL ONCE 1 WK POST FIRST INHIBITOR DOSE (STUDY DURATION: 53 WK), Promoter: NONE): 100%, 97%, 3%, not significant | tumour outcome (control, treated, inhibition, significance) (Carcinogen: 4-(METHYLNITROSAMINO)-1-(3-PYRIDYL)-1-BUTANONE, 64091-91-4, Dose [Inhibitor]: 0, 6528 PPM IN DIET FOR 22 WK BEGINNING 1 WK PRIOR TO CARCINOGEN TREATMENT (STUDY DURATION: 98 WK), Route [Inhibitor]: ORAL, Species: RAT, Strain/Sex: F344/MALE, Target Tissue: Type of Lesion: LUNG: TUMOR, Dose [Carcinogen]: 1.5 MG/KG BW 3/WK FOR 20 WK, Promoter: NONE USED): 22/33 (67%), 22/36 (61%), 9%, not significant | tumour outcome (control, treated, inhibition, significance) (Carcinogen: 4-(METHYLNITROSAMINO)-1-(3-PYRIDYL)-1-BUTANONE, 64091-91-4, Dose [Inhibitor]: 0, 6528 PPM IN DIET FOR 22 WK BEGINNING 1 WK PRIOR TO CARCINOGEN TREATMENT (STUDY DURATION: 98 WK), Route [Inhibitor]: ORAL, Species: RAT, Strain/Sex: F344/MALE, Target Tissue: Type of Lesion: NASAL CAVITY: TUMOR, Dose [Carcinogen]: 1.5 MG/KG BW 3/WK FOR 20 WK, Promoter: NONE USED): 28/36 (78%), 22/36 (61%), 22%, not significant | tumour outcome (control, treated, inhibition, significance) (Carcinogen: 4-(METHYLNITROSAMINO)-1-(3-PYRIDYL)-1-BUTANONE, 64091-91-4, Dose [Inhibitor]: 0, 13056 PPM IN DIET FOR 22 WK BEGINNING 1 WK PRIOR TO CARCINOGEN DOSE (STUDY DURATION: 98 WK), Route [Inhibitor]: ORAL, Species: RAT, Strain/Sex: F344/MALE, Target Tissue: Type of Lesion: NASAL CAVITY: TUMOR, Dose [Carcinogen]: 1.5 MG/KG BW 3/WK FOR 20 WK, Promoter: NONE USED): 28/36 (78%), 17/36 (47%), 40%, not significant | tumour outcome (control, treated, inhibition, significance) (Carcinogen: 4-(METHYLNITROSAMINO)-1-(3-PYRIDYL)-1-BUTANONE, 64091-91-4, Dose [Inhibitor]: 0, 13056 PPM IN DIET FOR 22 WK BEGINNING 1 WK PRIOR TO CARCINOGEN TREATMENT (STUDY DURATION: 98 WK), Route [Inhibitor]: ORAL, Species: RAT, Strain/Sex: F344/MALE, Target Tissue: Type of Lesion: LUNG: TUMOR, Dose [Carcinogen]: 1.5 MG/KG BW 3/WK FOR 20 WK, Promoter: NONE USED): 22/33 (67%), 21/36 (58%), 13%, not significant | tumour outcome (control, treated, inhibition, significance) (Carcinogen: 7,12-DIMETHYLBENZ[A]ANTHRACENE, 57-97-6, Dose [Inhibitor]: 0, 4000 PPM IN DIET FOR DURATION OF STUDY BEGINNING 1 WK PRIOR TO CARCINOGEN DOSE (STUDY DURATION: 107 D), Route [Inhibitor]: ORAL, Species: RAT, Strain/Sex: SPRAGUE-DAWLEY/FEMALE, Target Tissue: Type of Lesion: MAMMARY GLAND: ADENOCARCINOMA, Dose [Carcinogen]: 12 MG ONCE, Promoter: NONE USED): 92%, 88%, 4%, not significant | tumour outcome (control, treated, inhibition, significance) (Carcinogen: 7,12-DIMETHYLBENZ[A]ANTHRACENE, 57-97-6, Dose [Inhibitor]: 0, 8000 PPM IN DIET FOR DURATION OF STUDY BEGINNING 1 WK PRIOR TO CARCINOGEN DOSE (STUDY DURATION: 107 D), Route [Inhibitor]: ORAL, Species: RAT, Strain/Sex: SPRAGUE-DAWLEY/FEMALE, Target Tissue: Type of Lesion: MAMMARY GLAND: ADENOCARCINOMA, Dose [Carcinogen]: 12 MG ONCE, Promoter: NONE USED): 92%, 92%, 0%, not significant | tumour outcome (control, treated, inhibition, significance) (Carcinogen: AZOXYMETHANE, 25843-45-2, Dose [Inhibitor]: 0, 600 PPM IN DIET BEGINNING 2 WK PRIOR TO CARCINOGEN TREATMENT AND CONTINUING FOR DURATION OF STUDY (STUDY DURATION: 56, Route [Inhibitor]: ORAL, Species: RAT, Strain/Sex: F344/MALE, Target Tissue: Type of Lesion: COLON: INVASIVE ADENOCARCINOMA, Dose [Carcinogen]: 15 MG/KG 1/WK FOR 2 WK, Promoter: NONE USED): 34%, 22%, 35%, not significant | tumour outcome (control, treated, inhibition, significance) (Carcinogen: AZOXYMETHANE, 25843-45-2, Dose [Inhibitor]: 0, 600 PPM IN DIET BEGINNING 2 WK PRIOR TO CARCINOGEN TREATMENT AND CONTINUING FOR DURATION OF STUDY (STUDY DURATION: 56, Route [Inhibitor]: ORAL, Species: RAT, Strain/Sex: F344/MALE, Target Tissue: Type of Lesion: COLON: NONINVASIVE ADENOCARCINOMA, Dose [Carcinogen]: 15 MG/KG 1/WK FOR 2 WK, Promoter: NONE USED): 53%, 44%, 17%, not significant | tumour outcome (control, treated, inhibition, significance) (Carcinogen: AZOXYMETHANE, 25843-45-2, Dose [Inhibitor]: 0, 1200 PPM IN DIET BEGINNING 2 WK PRIOR TO CARCINOGEN TREATMENT AND CONTINUING FOR DURATION OF STUDY (STUDY DURATION: 5, Route [Inhibitor]: ORAL, Species: RAT, Strain/Sex: F344/MALE, Target Tissue: Type of Lesion: COLON: INVASIVE ADENOCARCINOMA, Dose [Carcinogen]: 15 MG/KG 1/WK FOR 2 WK, Promoter: NONE USED): 34%, 19%, 44%, not significant | tumour outcome (control, treated, inhibition, significance) (Carcinogen: AZOXYMETHANE, 25843-45-2, Dose [Inhibitor]: 0, 1200 PPM IN DIET BEGINNING 2 WK PRIOR TO CARCINOGEN TREATMENT AND CONTINUING FOR DURATION OF STUDY (STUDY DURATION: 5, Route [Inhibitor]: ORAL, Species: RAT, Strain/Sex: F344/MALE, Target Tissue: Type of Lesion: COLON: NONINVASIVE ADENOCARCINOMA, Dose [Carcinogen]: 15 MG/KG 1/WK FOR 2 WK, Promoter: NONE USED): 53%, 42%, 21%, not significant | tumour outcome (control, treated, inhibition, significance) (Carcinogen: DIETHYLNITROSAMINE, 55-18-5, Dose [Inhibitor]: 0, 30 MG/KG BW BY INTRAPERITONEAL INJECTION ON DAYS 13, 14 AND 15 OF AGE THEN 2 G/KG DIET FROM 21 TO 161 DAYS OF AGE (ST, Route [Inhibitor]: INTRAPERITONEAL, ORAL, Species: MOUSE, Strain/Sex: C3H/MALE, Target Tissue: Type of Lesion: LIVER: ADENOMA, Dose [Carcinogen]: 4 MG/KG IN TRICAPRYLIN ONCE ON DAY 15 OF AGE, Promoter: NONE USED): 100%, 100%, 0%, not significant
